Test results published in publication PMC3176174 (OncoTargets and therapy, 2011).

Legend:
Assay in all cases: cells
Assay type in all cases: cell-based, human
B1 cell line = test system: B1 cell line
MOLT-3 cell line = test system: MOLT-3 cell line
SEM cell line = test system: SEM cell line
TIB-202 cell line = test system: TIB-202 cell line
KOPN8 cell line = test system: KOPN8 cell line

| Compound | IC50 (B1 cell line; Homo sapiens, 96 h) | IC50 (MOLT-3 cell line; Homo sapiens, MOLT-3, 96 h) | IC50 (SEM cell line; Homo sapiens, 96 h) | IC50 (TIB-202 cell line; Homo sapiens, 96 h) | IC50 (KOPN8 cell line; Homo sapiens, KOPN-8, 96 h) | IC50 (B1 cell line; Table S1, B1, 96 hours) | IC50 (MOLT-3 cell line; Table S1, MOLT-3, 96 hours) | IC50 (SEM cell line; Table S1, SEM, 96 hours) | IC50 (TIB-202 cell line; Table S1, TIB-202, 96 hours) | IC50 (KOPN8 cell line; Table S1, KOPN8, 96 hours) |
| --- | --- | --- | --- | --- | --- | --- | --- | --- | --- | --- |
| C[C@@H](CN1CC(=O)NC(=O)C1)N1CC(=O)NC(=O)C1 [Dexrazoxone] | > 10 µM | > 10 µM | > 10 µM | > 5 µM | > 5 µM | – | – | – | – | – |
| Carboplatin | – | – | – | – | – | 7.73 µM | 6.97 µM | > 10 µM | 7.64 µM | 5.14 µM |
| O=P(O)(O)C(O)(Cn1ccnc1)P(=O)(O)O [Zoledronic acid] | > 10 µM | > 10 µM | > 10 µM | > 10 µM | > 10 µM | – | – | – | – | – |
| O=C(O)CCCc1ccc(N(CCCl)CCCl)cc1 [Chlorambucil] | 6.41 µM | 5.56 µM | 7.29 µM | 4.47 µM | 3.38 µM | – | – | – | – | – |
| Clc1ccc(C(c2ccccc2Cl)C(Cl)Cl)cc1 (stereo not shown) [Mitotane] | > 10 µM | > 10 µM | > 10 µM | > 5 µM | > 5 µM | – | – | – | – | – |
| COc1cccc2c1C(=O)c1c(O)c3c(c(O)c1C2=O)C[C@@](O)(C(=O)CO)C[C@@H]3O[C@H]1C[C@H](N)[C@H](O)[C@H](C)O1 [Doxorubicin] | 0.12 µM | 7.84 µM | < 0.01 µM | 0.0585 µM | < 0.01 µM | – | – | – | – | – |
| N[C@@H](Cc1ccc(N(CCCl)CCCl)cc1)C(=O)O [Melphalan] | 4.08 µM | 1.03 µM | 5.8 µM | 2.2 µM | 0.425 µM | – | – | – | – | – |
| CS(=O)(=O)CCNCc1ccc(-c2ccc3ncnc(Nc4ccc(OCc5cccc(F)c5)c(Cl)c4)c3c2)o1 [Lapatinib] | 5.7 µM | > 10 µM | 4.73 µM | 7.42 µM | 5.2 µM | – | – | – | – | – |
| Cc1nc(Nc2ncc(C(=O)Nc3c(C)cccc3Cl)s2)cc(N2CCN(CCO)CC2)n1 [Dasatinib] | < 1e-06 µM | > 10 µM | 4.05 µM | < 1e-06 µM | 0.00748 µM | – | – | – | – | – |
| O=C1[O][Pt]2([NH][C@@H]3CCCC[C@H]3[NH]2)[O]C1=O [Oxaliplatin] | – | – | – | – | – | 3.68 µM | 0.969 µM | 5.67 µM | 6.2 µM | 0.309 µM |
| CNNCc1ccc(C(=O)NC(C)C)cc1 [Procarbazine] | > 10 µM | > 10 µM | > 10 µM | > 5 µM | > 5 µM | – | – | – | – | – |
| CCc1c2c(nc3ccc(OC(=O)N4CCC(N5CCCCC5)CC4)cc13)-c1cc3c(c(=O)n1C2)COC(=O)[C@]3(O)CC [Irinotecan] | 2.29 µM | 3.92 µM | 3.4 µM | 2.53 µM | 1.69 µM | – | – | – | – | – |

Further lines, with some results ahead:

| IC50 (B1 cell line; Homo sapiens, 96 h) | IC50 (MOLT-3 cell line; Homo sapiens, MOLT-3, 96 h) | IC50 (SEM cell line; Homo sapiens, 96 h) | IC50 (TIB-202 cell line; Homo sapiens, 96 h) | IC50 (KOPN8 cell line; Homo sapiens, KOPN-8, 96 h) | Compound | IC50 (B1 cell line; Table S1, B1, 96 hours) | IC50 (MOLT-3 cell line; Table S1, MOLT-3, 96 hours) | IC50 (SEM cell line; Table S1, SEM, 96 hours) | IC50 (TIB-202 cell line; Table S1, TIB-202, 96 hours) | IC50 (KOPN8 cell line; Table S1, KOPN8, 96 hours) |
| --- | --- | --- | --- | --- | --- | --- | --- | --- | --- | --- |
| 5.07 µM | 6.21 µM | 1.3 µM | 5.2 µM | 0.836 µM | Nc1ncn([C@@H]2O[C@H](CO)[C@@H](O)[C@H]2O)c(=O)n1 [Azacitidine] | – | – | – | – | – |
| > 10 µM | 1.23 µM | > 10 µM | > 10 µM | > 10 µM | COc1nc(N)nc2c1ncn2[C@@H]1O[C@H](CO)[C@@H](O)[C@@H]1O [Nelarabine] | – | – | – | – | – |
| > 10 µM | > 10 µM | 9.12 µM | > 5 µM | > 5 µM | Cn1nnc2c(C(N)=O)ncn2c1=O [Temozolomide] | – | – | – | – | – |
| > 10 µM | > 10 µM | 2.08 µM | > 10 µM | > 10 µM | CC(C)(C#N)c1cc(Cn2cncn2)cc(C(C)(C)C#N)c1 [Anastrozole] | – | – | – | – | – |
| > 10 µM | > 10 µM | > 10 µM | > 5 µM | > 5 µM | Oc1ncnc2[nH]ncc12 [Allopurinol] | – | – | – | – | – |
| > 10 µM | > 10 µM | > 10 µM | > 10 µM | > 10 µM | NCC(=O)CCC(=O)O [Aminolevulinic acid] | – | – | – | – | – |
| > 10 µM | > 10 µM | > 10 µM | > 10 µM | > 10 µM | N#Cc1ccc(C(c2ccc(C#N)cc2)n2cncn2)cc1 [Letrozole] | – | – | – | – | – |
| > 10 µM | > 10 µM | > 10 µM | > 10 µM | > 10 µM | NCCCNCCSP(=O)(O)O [Amifostine] | – | – | – | – | – |
